Assay results published in patent US7563787B2, “Substituted pyrazole compounds” (Miikana Therapeutics, Inc., priority 2005, dated 2009).

Assays:
HCT-116 cell growth = assay: Whole Cell Cytotoxicity Assay: Sulforhodamine B; type: cell-based, Human; details: Homo sapiens, HCT-116; 100 μM compound; 96 hours; SRB staining
Procedure: Human tumor-derived cell lines, HCT116 or MCF7 (ATCC) were plated in a 96 well plate in DMEM containing 10% fetal bovine serum and 2 mM L-glutamine at a density of 500 HCT116 cells or 1,000 MCF7 cells per well and incubated at 37° C., 5% CO2, for 24 hours prior to the addition of experimental compounds. Compounds were added using the dilution series indicated to duplicate plates and the cells were incubated in media plus compound for 96 hours. An additional plate was fixed in 10% TCA at the time of the addition of compound to provide a measurement of the cell population at time zero, the time of drug addition. Following the 96 hour incubation, cells were fixed in situ by gently aspirating off the culture media and then adding 50 ul of ice cold 10% TCA per well and incubation at 4° C. for 60 minutes. The plates were washed with tap water five times and allowed to air dry for 5 minute. 50 ul of a 0.4% (w/v) Sulforhodamine B solution in 1% (v/v) acetic acid was added per well and the cells were incubated for 30 minutes at room temperature. Following staining, plates were washed four times with 1% acetic acid to remove any unbound dye and then allowed to air dry for 5 minutes. The stain was solubilized with 100 ul of 10 mM Tris pH 10.5 per well and placed on an orbital rotator for 5 minutes. The absorbance was read at 570 nm. Percentage growth was calculated using the absorbance readings from the time zero plate (Tz) and the dilution series plate […] which included a column of cells grown in media without compound as a control (C) using the formulas: [(Ti−Tz)/(C−Tz)]×100 for concentrations for which Ti>/=Tz [(Ti−Tz)/Tz]×100 for concentrations for which Ti<Tz.
Three dose response parameters were calculated for each experimental agent. Growth inhibition of 50% (GI50) was calculated from [(Ti−Tz)/(C−Tz)]×100=50, which was the drug concentration resulting in a 50% reduction in the net protein increase (as measured by SRB staining) in control cells during the drug incubation. The drug concentration resulting in total growth inhibition (TGI) was calculated from Ti=Tz. The LC50 (concentration of drug resulting in a 50% reduction in the measured protein at the end of the drug treatment as compared to that at the beginning) indicating a net loss of cells following treatment was calculated from [(Ti−Tz)/Tz]×100=−50. Values are calculated for each of these three parameters if the level of activity was reached; however, if the effect was not reached or was exceeded, the value for that parameter is expressed as greater or less than the maximum or minimum concentration tested.

recombinant Aurora A = biological target: T1, recombinant Aurora A (Homo sapiens, UniProt O14965); assay: Aurora A (Aurora 2) Inhibition Assay (Z'-Lyte); type: biochemical; details: 100 μM compound; ATP 10 μM; 1 h
T1 construct: purchased Upstate, Lake Placid, N.Y
T1 sequence (O14965 1-403): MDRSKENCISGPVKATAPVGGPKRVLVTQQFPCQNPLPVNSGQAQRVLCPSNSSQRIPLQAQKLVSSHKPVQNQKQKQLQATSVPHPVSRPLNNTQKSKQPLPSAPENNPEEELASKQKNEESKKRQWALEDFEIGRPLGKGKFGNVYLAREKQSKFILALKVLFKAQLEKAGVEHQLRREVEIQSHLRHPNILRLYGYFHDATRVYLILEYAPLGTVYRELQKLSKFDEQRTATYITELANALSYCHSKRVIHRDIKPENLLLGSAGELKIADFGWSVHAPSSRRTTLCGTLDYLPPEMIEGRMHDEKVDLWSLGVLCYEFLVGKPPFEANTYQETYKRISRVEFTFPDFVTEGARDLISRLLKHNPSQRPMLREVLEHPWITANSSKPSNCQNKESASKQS
Procedure: Compounds were tested for their potency against recombinant Aurora A (Upstate, Lake Placid, N.Y.) using the PanVera Z'-Lyte kinase assay kit-Ser/[…] peptide (Invitrogen, Carlsbad, Calif.). […] Assays were carried out in half-area 96-well white polystyrene assay plates (Corning, Corning, N.Y.) in a final volume of 20 μl. The reaction was allowed to proceed for 1 h at room temperature in the dark, at which point the development reagent and stop reagent were added according to the manufacturer's instructions. Coumarin (Ex. 400 nm, Em. 465 nm) and fluorescein (Ex. 400 nm, Em. 565 nm) fluorescence values were measured on a SpectraFluor Plus plate reader (Tecan, Durham, N.C.). The emission ratio (coumarin/fluorescein) was determined and used to calculate the percent phosphorylation for each well. […] Typically 20-40% of the substrate was phosphorylated in wells without inhibitor. Dose-response curves of relative Aurora A activity vs. inhibitor concentration were plotted with Grafit (Erithacus Software, Horley, Surrey, UK).

| inhibition at 100 µM (recombinant Aurora A) [%] | Compound | inhibition at 100 µM (HCT-116 cell growth) [%] |
| --- | --- | --- |
| 99 | Cc1cc(Nc2cc(Cl)nc(/C=C/c3ccccc3)n2)n[nH]1 [Example 34, 6-chloro-N-(3-methyl-1H-pyrazol-5-yl)-2-[(E)-2-phenylvinyl]pyrimidin-4-amine] | 98 |
| 100 | Cc1cc(Nc2cc(N3CCN(C)CC3)nc(/C=C/c3ccc(Cl)cc3)n2)n[nH]1 [Example 49, 2-(4-chlorostyryl)-N-(5methyl-1H-pyrazol-3-yl)-6-(4-methylpiperazin-1-yl)pyrimidin-4-amine] | 75 |
| 100 | COc1cc(/C=C/c2nc(Nc3cc(C)[nH]n3)cc(N3CCN(C)CC3)n2)cc(OC)c1 [Example 50, 2-(3,5-dimethoxystyryl)-N-(5-methyl-1H-pyrazol-3-yl)-6-(4-methylpiperazin-1-yl)pyrimidin-4-amine] | 98 |
| 100 | Cc1cc(Nc2nc(/C=C/c3ccccc3)nc(N3CCCC3)c2N)[nH]n1 [Example 15, N-(3-methyl-1H-pyrazol-5-yl)-6-(pyrrolidin-1-yl)-2-[(E)-2-phenylvinyl]pyrimidin-4,5-diamine] | 91 |
| 99 | CCOC(=O)c1nc(/C=C/c2ccc(OC)cc2)nc(Nc2cc(C)n[nH]2)c1N [Example 23, ethyl 5-amino-2-[(E)-2-(4-methoxyphenyl)vinyl]-6-[(3-methyl-1H-pyrazol-5-yl)amino]pyrimidine-4-carboxylate] | 91 |
| 100 | Cc1cc(Nc2cc(N3CCSCC3)nc(/C=C/c3ccccc3)n2)n[nH]1 [Example 83, N-(5methyl-1H-pyrazol-3-yl)-2-styryl-6thiomorpholinopyrimidin-4-amine] | 98 |
| 100 | COC(=O)c1ccc(/C=C/c2nc(Nc3cc(C)[nH]n3)c(N)c(N3CCN(C)CC3)n2)cc1 [Example 39, methyl 4-((E)-2-{5-amino-4-(4-methylpiperazin-1-yl)-6-[(3-methyl-1H-pyrazol-5-yl)amino]-pyrimidin-2-yl}vinyl)benzoate] | 97 |
| 100 | Cc1cc(Nc2cc(NCCN(C)C)nc(/C=C/c3ccccc3)n2)n[nH]1 [Example 66, N^4-(2-(dimethylamino)ethyl)-N^6-(5-methyl-1H-pyrazol-3-yl)-2-styrylpyrimidine-4,6-diamine] | 98 |
| 100 | Cc1cc(Nc2cc(N3CCOCC3)nc(/C=C/c3ccccc3)n2)n[nH]1 [Example 64, N-(5-methyl-1H-pyrazol-3-yl)-6-morpholino-2-styrylpyrimidin-4-amine] | 98 |
| 100 | Cc1cc(Nc2cc(N3CCCCC3)nc(/C=C/c3ccccc3)n2)n[nH]1 [Example 67, N-(5-methyl-1H-pyrazol-3-yl)-6-(piperidin-1-yl)-2-styrylpyrimidin-4-amine] | 98 |
| 100 | Cc1ccc(/C=C/c2nc(Nc3cc(C)[nH]n3)c(N)c(N3CCN(C)CC3)n2)cc1 [Example 170] | 99 |
| 100 | Cc1cc(Nc2cc(NCc3ccco3)nc(/C=C/c3ccccc3)n2)n[nH]1 [Example 162, N^4-((furan-2-yl)methyl)-N^6-(5methyl-1H-pyrazol-3-yl)-2-styrylpyrimidine-4,6-diamine] | 98 |
| 100 | Cc1cc(Nc2cc(N3CCN(S(C)(=O)=O)CC3)nc(/C=C/c3ccccc3)n2)n[nH]1 [Example 71, N-(5-methyl-1H-pyrazol-3-yl)-6-(4-methylsulfonylpiperazin-1-yl)-2-styrylpyrimidin-4-amine] | 98 |
